From patent US20250235543A1, “MODIFIED PROTEINS AND PROTEIN DEGRADERS” (Cullgen (Shanghai), Inc., priority 2021, published 2025)

How the values were obtained:
CDK4 = target: T1, CDK4 (Homo sapiens, UniProt P11802); assay: CDK4 percentage degradation in Calu-1 cells (immunoblotting); format: cell-based; conditions: Calu-1 cells, 200 nM, 16 hours; read-out: CDK4 Degradation (200 nM)
T1 construct: endogenous in cells; host or cells: Calu-1
Protocol: (§1) […] A: protein percentage degradation >=80%; B: protein percentage degradation <80%, and >=50%; C: protein percentage degradation <50%, and >=30%; D: protein percentage degradation <30%.
(§2) Cultured cells were washed with cold PBS once and lysed in cold RIPA buffer supplemented with protease inhibitors and phosphatase inhibitors (Beyotime Biotechnology). The solutions were then incubated at 4° C. for 30 min with gentle agitation to fully lysed cells. Cell lysates were centrifuged at 13,000 rpm for 10 min at 4° C. and pellets were discarded. Total protein concentrations in the lysates were determined following BCA assays (Beyotime Biotechnology). Cell lysates were mixed with Laemmli loading buffer and heated at 99° C. for 5 min. Proteins were resolved on SDS-PAGE and visualized using Western ECL Substrate kits on a ChemiDoc MP Imaging system (Bio-Rad). Protein bands were quantitated using the Image Lab software provided by Bio-Rad.

cyclin D1 = assay: Cyclin D1 percentage degradation in Calu-1 cells (immunoblotting); format: cell-based; conditions: 200 nM, 16 hours
Protocol: as §1, §2

T1 sequence (P11802 2-303 limits assumed): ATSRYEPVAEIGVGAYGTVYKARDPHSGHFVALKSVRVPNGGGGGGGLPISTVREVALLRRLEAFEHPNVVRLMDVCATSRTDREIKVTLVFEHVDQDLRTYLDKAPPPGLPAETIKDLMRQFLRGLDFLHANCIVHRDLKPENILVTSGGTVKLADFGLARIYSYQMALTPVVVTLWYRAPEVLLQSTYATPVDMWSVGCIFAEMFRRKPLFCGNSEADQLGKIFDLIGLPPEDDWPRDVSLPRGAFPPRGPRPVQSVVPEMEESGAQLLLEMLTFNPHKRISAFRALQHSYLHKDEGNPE
T1 sequence (P24385 whole entry partner): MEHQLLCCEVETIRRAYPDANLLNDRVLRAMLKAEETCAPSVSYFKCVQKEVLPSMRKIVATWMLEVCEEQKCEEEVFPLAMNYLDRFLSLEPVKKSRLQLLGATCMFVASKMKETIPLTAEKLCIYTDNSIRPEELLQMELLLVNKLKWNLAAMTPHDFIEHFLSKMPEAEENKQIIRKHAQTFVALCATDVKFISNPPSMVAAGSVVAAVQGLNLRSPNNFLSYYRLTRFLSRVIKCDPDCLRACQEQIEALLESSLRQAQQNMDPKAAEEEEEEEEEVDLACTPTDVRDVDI
T1 sequence (Q16531 2-1140 limits assumed, further chain): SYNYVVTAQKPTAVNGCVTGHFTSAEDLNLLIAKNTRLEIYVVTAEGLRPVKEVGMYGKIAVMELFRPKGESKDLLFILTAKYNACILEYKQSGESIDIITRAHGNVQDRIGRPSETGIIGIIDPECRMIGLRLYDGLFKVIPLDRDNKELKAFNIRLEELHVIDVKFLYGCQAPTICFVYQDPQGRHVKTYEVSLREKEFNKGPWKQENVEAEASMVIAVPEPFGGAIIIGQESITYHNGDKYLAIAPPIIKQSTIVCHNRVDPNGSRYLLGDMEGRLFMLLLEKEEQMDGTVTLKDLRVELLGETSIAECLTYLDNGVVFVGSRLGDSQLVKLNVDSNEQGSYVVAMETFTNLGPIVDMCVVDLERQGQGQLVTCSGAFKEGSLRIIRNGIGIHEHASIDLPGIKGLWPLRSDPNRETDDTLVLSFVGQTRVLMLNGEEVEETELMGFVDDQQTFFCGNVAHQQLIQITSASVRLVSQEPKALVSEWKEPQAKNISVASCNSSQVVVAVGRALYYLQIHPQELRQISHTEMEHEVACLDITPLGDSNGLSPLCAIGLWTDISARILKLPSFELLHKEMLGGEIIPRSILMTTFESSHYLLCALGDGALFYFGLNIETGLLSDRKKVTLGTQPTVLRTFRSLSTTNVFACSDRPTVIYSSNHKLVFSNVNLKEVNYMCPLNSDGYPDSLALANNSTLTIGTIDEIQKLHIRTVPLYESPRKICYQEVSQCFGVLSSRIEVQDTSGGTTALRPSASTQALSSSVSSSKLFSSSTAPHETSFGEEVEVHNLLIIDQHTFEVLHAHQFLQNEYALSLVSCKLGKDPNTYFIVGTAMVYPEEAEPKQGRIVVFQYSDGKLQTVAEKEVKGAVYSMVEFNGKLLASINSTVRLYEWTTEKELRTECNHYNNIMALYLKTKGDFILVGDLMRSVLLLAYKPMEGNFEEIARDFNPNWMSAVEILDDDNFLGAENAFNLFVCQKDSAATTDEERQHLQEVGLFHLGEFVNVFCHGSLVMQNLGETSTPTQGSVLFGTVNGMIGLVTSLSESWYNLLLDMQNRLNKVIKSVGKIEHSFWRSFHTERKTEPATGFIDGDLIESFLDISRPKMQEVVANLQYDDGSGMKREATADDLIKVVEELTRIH

| Compound | inhibition at 0.2 µM (CDK4) [%] | CyclinD1 Degradation (200 nM) (cyclin D1) |
| --- | --- | --- |
| CC(=O)c1c(C)c2cnc(Nc3ccc(N4CCN(CC(=O)NCCOCCOCCOCCOCCOCCNc5ccc(C(=O)Nc6ncc(-c7ccccc7)s6)c(C)c5)CC4)cn3)nc2n(C2CCCC2)c1=O [CPD-001, 4-((1-(4-(6-((6-Acetyl-8-cyclopentyl-5-methyl-7-oxo-7,8-dihydropyrido[2,3-d]pyrimidin-2-yl)amino)pyridin-3-yl)piperazin-1-yl)-2-oxo-6,9,12,15,18-pentaoxa-3-azaicosan-20-yl)amino)-2-methyl-N-(5-phenylthiazol-2-yl)benzamide] | < 30 | D (protein percentage degradation <30%) |
| CC(=O)c1c(C)c2cnc(Nc3ccc(N4CCN(CC(=O)NCCOCCOCCOCCOCCOCCNc5ccc(C(=O)Nc6ncc(C(F)(F)F)s6)c(C)c5)CC4)cn3)nc2n(C2CCCC2)c1=O [CPD-003, 4-((1-(4-(6-((6-Acetyl-8-cyclopentyl-5-methyl-7-oxo-7,8-dihydropyrido[2,3-d]pyrimidin-2-yl)amino)pyridin-3-yl)piperazin-1-yl)-2-oxo-6,9,12,15,18-pentaoxa-3-azaicosan-20-yl)amino)-2-methyl-N-(5-(trifluoromethyl)thiazol-2-yl)benzamide] | < 30 | D (protein percentage degradation <30%) |
| CC(=O)c1c(C)c2cnc(Nc3ccc(N4CCN(CC(=O)NCCOCCOCCOCCOCCOCCNc5ccc(C(=O)Nc6ncc(Cl)s6)c(C)c5)CC4)cn3)nc2n(C2CCCC2)c1=O [CPD-005, 4-((1-(4-(6-((6-Acetyl-8-cyclopentyl-5-methyl-7-oxo-7,8-dihydropyrido[2,3-d]pyrimidin-2-yl)amino)pyridin-3-yl)piperazin-1-yl)-2-oxo-6,9,12,15,18-pentaoxa-3-azaicosan-20-yl)amino)-N-(5-chlorothiazol-2-yl)-2-methylbenzamide] | < 30 | D (protein percentage degradation <30%) |
| CC(=O)c1c(C)c2cnc(Nc3ccc(N4CCN(CC(=O)NCCOCCOCCOCCOCCOCCNc5ccc(C(=O)Nc6ncc(C(C)C)s6)c(C)c5)CC4)cn3)nc2n(C2CCCC2)c1=O [CPD-006, 4-((1-(4-(6-((6-Acetyl-8-cyclopentyl-5-methyl-7-oxo-7,8-dihydropyrido[2,3-d]pyrimidin-2-yl)amino)pyridin-3-yl)piperazin-1-yl)-2-oxo-6,9,12,15,18-pentaoxa-3-azaicosan-20-yl)amino)-N-(5-isopropylthiazol-2-yl)-2-methylbenzamide] | < 30 | D (protein percentage degradation <30%) |
| CC(=O)c1c(C)c2cnc(Nc3ccc(N4CCN(CC(=O)NCCOCCOCCOCCOCCOCCNc5ccc(C(=O)Nc6nc(-c7ccccc7)cs6)c(C)c5)CC4)cn3)nc2n(C2CCCC2)c1=O [CPD-007, 4-((1-(4-(6-((6-Acetyl-8-cyclopentyl-5-methyl-7-oxo-7,8-dihydropyrido[2,3-d]pyrimidin-2-yl)amino)pyridin-3-yl)piperazin-1-yl)-2-oxo-6,9,12,15,18-pentaoxa-3-azaicosan-20-yl)amino)-2-methyl-N-(4-phenylthiazol-2-yl)benzamide] | < 30 | D (protein percentage degradation <30%) |
| CC(=O)c1c(C)c2cnc(Nc3ccc(N4CCN(CC(=O)NCCOCCOCCOCCOCCOCCNC(=O)CNc5ccc(C(=O)Nc6ncc(C)s6)c(C)c5)CC4)cn3)nc2n(C2CCCC2)c1=O [CPD-014, 4-((23-(4-(6-((6-Acetyl-8-cyclopentyl-5-methyl-7-oxo-7,8-dihydropyrido[2,3-d]pyrimidin-2-yl)amino)pyridin-3-yl)piperazin-1-yl)-2,22-dioxo-6,9,12,15,18-pentaoxa-3,21-diazatricosyl)amino)-2-methyl-N-(5-methylthiazol-2-yl)benzamide] | < 30 | D (protein percentage degradation <30%) |
| CC(=O)c1c(C)c2cnc(Nc3ccc(N4CCN(CC(=O)NCCCCCNC(=O)CNc5ccc(C(=O)Nc6ncc(C)s6)c(C)c5)CC4)cn3)nc2n(C2CCCC2)c1=O [CPD-015, 4-((2-((5-(2-(4-(6-((6-Acetyl-8-cyclopentyl-5-methyl-7-oxo-7,8-dihydropyrido[2,3-d]pyrimidin-2-yl)amino)pyridin-3-yl)piperazin-1-yl)acetamido)pentyl)amino)-2-oxoethyl)amino)-2-methyl-N-(5-methylthiazol-2-yl)benzamide] | < 30 | D (protein percentage degradation <30%) |
| CC(=O)c1c(C)c2cnc(Nc3ccc(N4CCN(CC(=O)NCCCCCCCNC(=O)CNc5ccc(C(=O)Nc6ncc(C)s6)c(C)c5)CC4)cn3)nc2n(C2CCCC2)c1=O [CPD-016, 4-((2-((7-(2-(4-(6-((6-Acetyl-8-cyclopentyl-5-methyl-7-oxo-7,8-dihydropyrido[2,3-d]pyrimidin-2-yl)amino)pyridin-3-yl)piperazin-1-yl)acetamido)heptyl)amino)-2-oxoethyl)amino)-2-methyl-N-(5-methylthiazol-2-yl)benzamide] | < 30 | D (protein percentage degradation <30%) |

Now from value to compound, other results behind:

| inhibition at 0.2 µM (CDK4) [%] | Compound | CyclinD1 Degradation (200 nM) (cyclin D1) |
| --- | --- | --- |
| < 30 | CC(=O)c1c(C)c2cnc(Nc3ccc(N4CCN(CC(=O)NCCOCCOCCOCCOCCOCCNC(=O)c5ccc(C(=O)Nc6ncc(C)s6)c(C)c5)CC4)cn3)nc2n(C2CCCC2)c1=O [CPD-008, N^4-(1-(4-(6-((6-Acetyl-8-cyclopentyl-5-methyl-7-oxo-7,8-dihydropyrido[2,3-d]pyrimidin-2-yl)amino)pyridin-3-yl)piperazin-1-yl)-2-oxo-6,9,12,15,18-pentaoxa-3-azaicosan-20-yl)-2-methyl-N^1-(5-methylthiazol-2-yl)terephthalamide] | D (protein percentage degradation <30%) |
| < 30 | CC(=O)c1c(C)c2cnc(Nc3ccc(N4CCN(CC(=O)NCCCCCNC(=O)c5ccc(C(=O)Nc6ncc(C)s6)c(C)c5)CC4)cn3)nc2n(C2CCCC2)c1=O [CPD-009, N^4-(5-(2-(4-(6-((6-Acetyl-8-cyclopentyl-5-methyl-7-oxo-7,8-dihydropyrido[2,3-d]pyrimidin-2-yl)amino)pyridin-3-yl)piperazin-1-yl)acetamido)pentyl)-2-methyl-N^1-(5-methylthiazol-2-yl)terephthalamide] | D (protein percentage degradation <30%) |
| < 30 | CC(=O)c1c(C)c2cnc(Nc3ccc(N4CCN(CC(=O)NCCOCCOCCNC(=O)c5ccc(C(=O)Nc6ncc(C)s6)c(C)c5)CC4)cn3)nc2n(C2CCCC2)c1=O [CPD-010, N^4-(2-(2-(2-(2-(4-(6-((6-Acetyl-8-cyclopentyl-5-methyl-7-oxo-7,8-dihydropyrido[2,3-d]pyrimidin-2-yl)amino)pyridin-3-yl)piperazin-1-yl)acetamido)ethoxy)ethoxy)ethyl)-2-methyl-N^1-(5-methylthiazol-2-yl)terephthalamide] | D (protein percentage degradation <30%) |
| < 30 | CC(=O)c1c(C)c2cnc(Nc3ccc(N4CCN(CC(=O)NCCOCCOCCOCCNC(=O)c5ccc(C(=O)Nc6ncc(C)s6)c(C)c5)CC4)cn3)nc2n(C2CCCC2)c1=O [CPD-011, N^4-(1-(4-(6-((6-Acetyl-8-cyclopentyl-5-methyl-7-oxo-7,8-dihydropyrido[2,3-d]pyrimidin-2-yl)amino)pyridin-3-yl)piperazin-1-yl)-2-oxo-6,9,12-trioxa-3-azatetradecan-14-yl)-2-methyl-N^1-(5-methylthiazol-2-yl)terephthalamide] | D (protein percentage degradation <30%) |
| < 30 | CC(=O)c1c(C)c2cnc(Nc3ccc(N4CCN(CC(=O)NCCOCCOCCOCCOCCNC(=O)c5ccc(C(=O)Nc6ncc(C)s6)c(C)c5)CC4)cn3)nc2n(C2CCCC2)c1=O [CPD-012, N^4-(1-(4-(6-((6-Acetyl-8-cyclopentyl-5-methyl-7-oxo-7,8-dihydropyrido[2,3-d]pyrimidin-2-yl)amino)pyridin-3-yl)piperazin-1-yl)-2-oxo-6,9,12,15-tetraoxa-3-azaheptadecan-17-yl)-2-methyl-N^1-(5-methylthiazol-2-yl)terephthalamide] | D (protein percentage degradation <30%) |
| < 30 | CC(=O)c1c(C)c2cnc(Nc3ccc(N4CCN(CC(=O)NCCOCCOCCOCCOCCNC(=O)CNc5ccc(C(=O)Nc6ncc(C)s6)c(C)c5)CC4)cn3)nc2n(C2CCCC2)c1=O [CPD-013, 4-((20-(4-(6-((6-Acetyl-8-cyclopentyl-5-methyl-7-oxo-7,8-dihydropyrido[2,3-d]pyrimidin-2-yl)amino)pyridin-3-yl)piperazin-1-yl)-2,19-dioxo-6,9,12,15-tetraoxa-3,18-diazaicosyl)amino)-2-methyl-N-(5-methylthiazol-2-yl)benzamide] | D (protein percentage degradation <30%) |
| < 30 | CC(=O)c1c(C)c2cnc(Nc3ccc(N4CCN(CC(=O)NCCOCCOCCNC(=O)CNc5ccc(C(=O)Nc6ncc(C)s6)c(C)c5)CC4)cn3)nc2n(C2CCCC2)c1=O [CPD-017, 4-((14-(4-(6-((6-Acetyl-8-cyclopentyl-5-methyl-7-oxo-7,8-dihydropyrido[2,3-d]pyrimidin-2-yl)amino)pyridin-3-yl)piperazin-1-yl)-2,13-dioxo-6,9-dioxa-3,12-diazatetradecyl)amino)-2-methyl-N-(5-methylthiazol-2-yl)benzamide] | D (protein percentage degradation <30%) |
